What was measured:
[1] = test system: experimental autoimmune uveitis (EAU) in C57B1/6 mice; experiment: Experimental autoimmune uveitis (EAU) model, therapeutic treatment, histological scoring; type: in vivo; conditions: EAU C57B1/6 mice, disease established, 5 doses, eyes harvested day 19 (FIG. 1)
Description: Whilst CD4+T cells are crucial for disease induction, it is now established in the literature (see Dick et al 2012) that tissue resident cells (microglia, macrophages) and infiltrating inflammatory cells (CD11b+granulocytes) contribute to the perpetuation of the inflammation in the C57BL/6 mouse, where evidence of retinal inflammation can be observed up to day 56 post immunization. In our study EAU was induced in C57B1/6 mice using subcutaneous administration of IRBP peptide emulsified in complete Freund's adjuvant (CFA) supplemented with […] mycobacterium, and intraperitoneal immunisation with Pertussis toxin. Clinical signs of EAU disease were monitored using non-invasive retinal fundus imaging (TEFI) until signs of retinal inflammatory disease were observed (usually by day 14). At this point mice were divided into treatment groups. A total of 45 mice were used, with groups as follows: CFA controls n=4; EAU controls n=6; JNJ 7777120 16 mg/kg n=5; 994 10 mg/kg n=5; 994 30 mg/kg n=5; 994 100 mg/kg n=5; 1006 10 mg/kg n=5; 1006 30 mg/kg n=5; 1006 100 mg/kg n=5. Each treatment group of mice received 5 intraperitoneal doses of compound, once per day, until day 19 when eyes were harvested. At this point eyes were processed and fixed, and histological sections were prepared. Histological scoring by light microscopy was done according to established methods (Gegg et al, 2005) where a score of 1.0 reflects inflammatory cells present in the vitreous cavity but not throughout the retinal layers, and the photoreceptor layer is as normal. A score of 2.0 reflects cells within the outer retinal layers, with some granuloma formation. A score of 3.0 reflects cells within the photoreceptor layer, some retinal folding, a focal loss of photoreceptor cells. […] This is an impressive effect since disease was already established. In most treatment studies mice are pretreated with drug prior to inducing EAU.

[2] = test system: endotoxin induced uveitis (EIU) in mice; experiment: Endotoxin induced uveitis (EIU) model, CD11b+ cells in retina by flow cytometry; type: in vivo; conditions: pretreated with 0.1, 1.0 and 10.0 mM eyedrops twice daily for 3 days before LPS, eyes harvested 24 hours later (FIG. 2)
Experimental: EIU is a more acute form of anterior uveitis, induced by intraperitoneal immunization with LPS (endotoxin), and clinical signs of uveitis can be observed within 24-48 hours post immunisation. Due to the narrow time frame of disease, in our study mice (n=2 per group) were pretreated with three different concentrations of JNJ777120 compound (0.1, 1.0 and 10.0 mM) given twice daily as eyedrops for 3 days prior to inducing EIU, and eyes harvested 24 hours later. In this study, retinas were dissected from each eye and single cell suspensions prepared for staining with CD11b (to stain for granulocytes), and analysed by flow cytometry, Each eye was kept separate, so results are shown as means of 4 retinae in each group, in comparison with 6 eyes from 3 EIU non-treated control mice.

Question: `CN1CCN(C(=O)c2cc3cc(Cl)ccc3[nH]2)CC1` [JNJ7777120, 1-[(5-chloro-1H-indol-2-yl)carbonyl]-4-methylpiperazine] was tested. Which “histological scores (retinal inflammation, light microscopy)” value (“histological scores” for short) ([1]; 16 mg/kg i.p. once per day) did it give?
Answer: reduced the histological scores to control levels

Question: What about the “levels of infiltrating granulocytes (numbers of CD11b+ cells in retina)” value [2] of the same compound?
Answer: significantly decreased the levels of infiltrating granulocytes

Question: How did the “histological scores” value ([1]; 100 mg/kg i.p. once per day) turn out when `Cc1ccc(CNc2cc(N3CCN(C)CC3)nc(N)n2)cc1.O=C(O)/C=C\C(=O)O` [compound 994] was run?
Answer: reduced the histological scores to control levels

Question: Which “histological scores” value ([1]; 30 mg/kg i.p. once per day) does the source give for `CN1CCN(c2cc(NCc3c(Cl)cccc3Cl)nc(N)n2)CC1.O=C(O)/C=C\C(=O)O` [compound 1006] here?
Answer: reduced the histological scores to control levels
